This experiment concerns the target T1, human GPR119 (hGPR119) (Homo sapiens, UniProt Q8TDV5).
T1 construct: expressed in transfected cells
T1 sequence (Q8TDV5 1-335): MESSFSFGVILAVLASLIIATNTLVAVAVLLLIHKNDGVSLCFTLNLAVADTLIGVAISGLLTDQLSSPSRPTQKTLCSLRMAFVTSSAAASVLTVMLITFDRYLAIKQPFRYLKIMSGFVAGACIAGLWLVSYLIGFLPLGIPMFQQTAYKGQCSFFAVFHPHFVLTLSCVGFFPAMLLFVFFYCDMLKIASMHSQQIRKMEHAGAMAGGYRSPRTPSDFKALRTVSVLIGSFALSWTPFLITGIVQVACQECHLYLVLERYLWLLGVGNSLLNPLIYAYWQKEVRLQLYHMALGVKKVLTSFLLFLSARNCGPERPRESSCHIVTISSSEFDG
Nature of the experiment: cAMP accumulation assay (Cisbio cAMP Gs dynamic HTRF kit) in CHO-K1 cells stably expressing human GPR119. It is filed as cell-based. To be noted: 4-parameter fit; for Emax: 1 h, % activity normalized to Max and Min controls; for EC50: 60 minutes at 37° C. Put shortly:
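CHO-K1 cells stably expressing hGPR119, used as assay-ready frozen stocks at ~10,000 cells/well, exposed to compound dose-response in stimulation buffer with Tween 80 for 60 min at 37° C. cAMP read by HTRF (665/620 nm ratio), normalised to Max/Min controls; EC50 and Max activity from 4-parameter fit.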
On the technique in general: Cyclic AMP is a second messenger, typically raised through Gs and lowered through Gi signalling.

The values below come from US20240217983A1, “GPR119 AGONISTS” (Kallyope, Inc., priority 2021, published 2024).

One may read the Emax as the size of the effect at its maximum, as opposed to the concentration needed. Broadly, the EC50 is the concentration at which the effect is half-maximal. A higher EC50 goes with a need for much substance. `O=C(Cc1ccc(OCCCC2CCN(c3ncc(Cl)cn3)CC2)cc1F)N1C2CC1CN(C[C@H](O)[C@@H](O)[C@H](O)[C@H](O)CO)C2` [Example 57, 2-(4-(3-(1-(5-chloropyrimidin-2-yl)piperidin-4-yl)propoxy)-2-fluorophenyl)-1-(3-((2S,3R,4R,5R)-2,3,4,5,6-pentahydroxyhexyl)-3,6-diazabicyclo[3.1.1]heptan-6-yl)ethan-1-one] gave an Emax of 100 to 130% and an EC50 of at most 100 nM.

In the case of `O=C(Cc1ccc(OCCCC2CCN(c3ncc(Cl)cn3)CC2)cc1F)N1CCN(C[C@H](O)[C@H](O)[C@H](O)CO)C2CC21` (stereo partly drawn) [Example 58, 2-(4-(3-(1-(5-chloropyrimidin-2-yl)piperidin-4-yl)propoxy)-2-fluorophenyl)-1-(5-((2S,3S,4R)-2,3,4,5-tetrahydroxypentyl)-2,5-diazabicyclo[4.1.0]heptan-2-yl)ethan-1-one], the Emax was in the range of 100 to 130% and the EC50 was at most 100 nM.

Regarding `O=C(Cc1ccc(OCCCC2CCN(c3ncc(Cl)cn3)CC2)cc1F)N1CCN(C[C@H](O)[C@@H](O)[C@H](O)[C@H](O)CO)C2CC21` (stereo partly drawn) [Example 59, 2-(4-(3-(1-(5-chloropyrimidin-2-yl)piperidin-4-yl)propoxy)-2-fluorophenyl)-1-(5-((2S,3R,4R,5R)-2,3,4,5,6-pentahydroxyhexyl)-2,5-diazabicyclo[4.1.0]heptan-2-yl)ethan-1-one], the Emax is 100 to 130% and the EC50 was at most 100 nM.

In turn, `O=C(Cc1ccc(OCCCC2CCN(c3ncc(Cl)cn3)CC2)cc1F)N1CC2(CCCN2C[C@H](O)[C@H](O)[C@H](O)CO)C1` [Example 60, 2-(4-(3-(1-(5-chloropyrimidin-2-yl)piperidin-4-yl)propoxy)-2-fluorophenyl)-1-(5-((2S,3S,4R)-2,3,4,5-tetrahydroxypentyl)-2,5-diazaspiro[3.4]octan-2-yl)ethan-1-one] registered a maximum response (Emax) of at least 130% and an EC50 of at most 100 nM.

Compound `O=C(Cc1ccc(OCCCC2CCN(c3ncc(Cl)cn3)CC2)cc1F)N1CC2(CCCN2C[C@H](O)[C@@H](O)[C@H](O)[C@H](O)CO)C1` [Example 61, 2-(4-(3-(1-(5-chloropyrimidin-2-yl)piperidin-4-yl)propoxy)-2-fluorophenyl)-1-(5-((2S,3R,4R,5R)-2,3,4,5,6-pentahydroxyhexyl)-2,5-diazaspiro[3.4]octan-2-yl)ethan-1-one] had an Emax of at least 130% and an EC50 of at most 100 nM.

For `O=C(Cc1ccc(OCCCC2CCN(c3ncc(Cl)cn3)CC2)cc1F)N1CC2(C1)N(C[C@H](O)[C@H](O)[C@H](O)CO)CC2(F)F` [Example 62, 2-(4-(3-(1-(5-chloropyrimidin-2-yl)piperidin-4-yl)propoxy)-2-fluorophenyl)-1-(3,3-difluoro-1-((2S,3S,4R)-2,3,4,5-tetrahydroxypentyl)-1,6-diazaspiro[3.3]heptan-6-yl)ethan-1-one], the Emax was in the range of 100 to 130% and the EC50 was at most 100 nM.

Turning to `O=C(Cc1ccc(OCCCC2CCN(c3ncc(Cl)cn3)CC2)cc1F)N1CC2(C1)N(C[C@H](O)[C@@H](O)[C@H](O)[C@H](O)CO)CC2(F)F` [Example 63, 2-(4-(3-(1-(5-chloropyrimidin-2-yl)piperidin-4-yl)propoxy)-2-fluorophenyl)-1-(3,3-difluoro-1-((2S,3R,4R,5R)-2,3,4,5,6-pentahydroxyhexyl)-1,6-diazaspiro[3.3]heptan-6-yl)ethan-1-one], the Emax was at least 130% and the EC50 was at most 100 nM.

In turn, `O=C(Cc1ccc(OCCCC2CCN(c3ncc(Cl)cn3)CC2)cc1F)N1C[C@H]2CCN(C[C@H](O)[C@H](O)[C@H](O)CO)[C@H]2C1` [Example 64, 2-(4-(3-(1-(5-chloropyrimidin-2-yl)piperidin-4-yl)propoxy)-2-fluorophenyl)-1-((3aR,6aR)-1-((2S,3S,4R)-2,3,4,5-tetrahydroxypentyl)hexahydropyrrolo[3,4-b]pyrrol-5(1H)-yl)ethan-1-one] showed an Emax of 100 to 130% and an EC50 of at most 100 nM.
